Earlier results as cited in patent publication US7411005B2, “Compositions and methods for increasing milk production in animals” (Van Beek Natural Science, LLC, priority 2002, dated 2008).

Conditions: inactive metabolites after degradation by enzymes

Row | SMILES | metabolites excreted in the urine | metabolites expired from the lungs in the form of CO2
1 | Cc1ccc(C(C)C)cc1O [isopropyl-o-cresol, 5-isopropyl-2-methylphenol] | approx. 90% | 10%
2 | Cc1ccc(C(C)C)c(O)c1 [isopropyl-cresol, 5-methyl-2[1-methylethyl]phenol] | approx. 90% | 10%
